Assay results from patent US10077237B2 (Sanofi, priority 2013, dated 2018).
Values joined by “and” are separate entries in the source; they are usually repeats but may differ in a detail not shown here. Equal values may be shown once. Where a name gives a salt, the structure may show the parent alone.

Biological target: T1, recombinant human AMPK complex, containing α2β1γ2 (Homo sapiens, UniProt P54646+Q9Y478)
T1 construct: hsAMPKα2-552-His, hsAMPKβ1-2-270 and hsAMPKγ-2-569 respectively; hsAMPKβ1-2-270; hsAMPKγ-2-569; His (C); made in house; host or cells: Spodoptera frugiperda Sf21 (baculovirus)
T1 sequence (P54646 2-552): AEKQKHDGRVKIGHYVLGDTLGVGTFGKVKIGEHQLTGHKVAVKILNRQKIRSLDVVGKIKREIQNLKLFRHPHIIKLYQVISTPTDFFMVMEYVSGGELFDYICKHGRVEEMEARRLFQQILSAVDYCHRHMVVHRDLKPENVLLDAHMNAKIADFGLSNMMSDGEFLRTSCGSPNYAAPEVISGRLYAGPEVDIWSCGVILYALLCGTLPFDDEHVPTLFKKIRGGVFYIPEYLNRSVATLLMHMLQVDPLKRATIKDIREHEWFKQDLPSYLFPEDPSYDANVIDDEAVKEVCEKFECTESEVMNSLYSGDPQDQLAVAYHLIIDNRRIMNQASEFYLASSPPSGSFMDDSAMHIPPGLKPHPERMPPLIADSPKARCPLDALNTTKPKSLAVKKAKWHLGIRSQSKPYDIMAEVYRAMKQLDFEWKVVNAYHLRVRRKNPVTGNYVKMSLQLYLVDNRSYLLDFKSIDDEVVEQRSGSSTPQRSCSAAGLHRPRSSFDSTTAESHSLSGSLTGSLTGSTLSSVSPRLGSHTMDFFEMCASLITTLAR
T1 sequence (Q9Y478 2-270): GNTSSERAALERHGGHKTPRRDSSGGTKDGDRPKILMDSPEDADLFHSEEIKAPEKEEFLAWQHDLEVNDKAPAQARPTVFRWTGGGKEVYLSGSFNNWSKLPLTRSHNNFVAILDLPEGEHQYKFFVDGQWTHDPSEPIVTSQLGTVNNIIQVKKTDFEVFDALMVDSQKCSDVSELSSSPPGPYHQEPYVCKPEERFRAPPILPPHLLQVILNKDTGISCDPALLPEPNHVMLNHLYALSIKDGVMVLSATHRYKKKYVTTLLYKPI
T1 sequence (Q9UGJ0 2-569 partner limits assumed): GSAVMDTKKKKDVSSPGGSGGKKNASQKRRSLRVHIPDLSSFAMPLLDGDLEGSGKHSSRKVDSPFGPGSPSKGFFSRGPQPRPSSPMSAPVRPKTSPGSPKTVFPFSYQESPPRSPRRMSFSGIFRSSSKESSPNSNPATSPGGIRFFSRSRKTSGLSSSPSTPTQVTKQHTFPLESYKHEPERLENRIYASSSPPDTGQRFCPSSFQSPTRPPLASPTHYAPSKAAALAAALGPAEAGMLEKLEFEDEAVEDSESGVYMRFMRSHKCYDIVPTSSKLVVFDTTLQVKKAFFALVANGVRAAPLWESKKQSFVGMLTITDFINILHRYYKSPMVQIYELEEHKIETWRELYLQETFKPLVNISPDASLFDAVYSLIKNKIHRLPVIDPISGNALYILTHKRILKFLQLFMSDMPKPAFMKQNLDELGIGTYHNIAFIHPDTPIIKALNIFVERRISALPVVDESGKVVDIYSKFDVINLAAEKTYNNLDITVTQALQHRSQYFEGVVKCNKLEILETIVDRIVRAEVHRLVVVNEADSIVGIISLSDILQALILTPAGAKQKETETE
Assay: AMPK in vitro activation assay (HTRF)
Format: biochemical
Conditions: for EC50: HTRF, recombinant human α2β1γ2 AMPK, 200 μM ATP, biotinylated ACC-CREBp peptide, repeat determinations on separate lines
Protocol: The recombinant human AMPK complex, containing α2β1γ2 was obtained from baculovirus expression system and generated by cotransfection in Spodoptera frugiperda 21 (Sf21). […] were produced in serum free medium (SF900 II, Invitrogen) for 82 hours after a triple infection at a multiplicity of infection (M.O.I.) of 0.05, 0.06 and 0.045 for hsAMPKα2-552-His, hsAMPKβ1-2-270 and hsAMPKγ-2-569 respectively. Cells were harvested by centrifugation at 1,000×g for 10 minutes at 4° C. and stored at −80° C. The insect cell pellet from 8 liters of culture was resuspended and homogenized in 580 ml of lysis buffer (20 mM Hepes pH 7.5, 150 mM NaCl, 10 mM imidazole, 50 mM NaF, 10% Glycerol and supplemented with EDTA free proteases inhibitor cocktail Roche). The AMPK complex was partially purified using an affinity chromatography under a Ni-NTA Agarose column equilibrated in the lysis buffer and eluted with a gradient (0 to 400 mM) of Imidazol.
A homogeneous time-resolved fluorescence (HTRF) assay was used (Li et al, Anal. Biochem. (2003) 321, 151-156) to identify compounds with stimulating activity for the recombinant human AMPK. Enzyme reaction was performed into a 96-well microtiter plate. First, 20 μL of test compounds in 0.5% DMSO were dispensed followed by 10 μL of protein in 50 mM HEPES buffer at pH 7.0, 100 mM NaCl, 5 mM MgCl2, 0.01% BSA, 0.8 mM DTT. After, 30 min incubation at room temperature, the reaction was initiated by the addition of 10 μL of a solution containing 200 μM of ATP as donor substrate, 2 μM or 0.08 μM of biotinylated ACC-CREBp peptide (PolyPeptide) as acceptor. Plates were then incubated 45 min at 37° C. The reaction was terminated by the addition of 40 μl detection mixture containing Eu^3+ cryptate-conjugated anti-pS^133-CREB antibody and streptavidine-XL665 (CisBio). Plates were further incubated for 2 h30 at room temperature. The fluorescence signal was measured using an Envision multireader (Perkin Elmer). The non-specific signal was obtained without substrates. Potentiation of AMPK activity was expressed as a percent over the basal signal (without compound) from which an EC50 value was determined.
The EC50 of a graded dose response curve represents the concentration of a compound where 50% of its maximal effect is observed.

[1] = potentiation of AMPK activity as percent over the basal signal (without compound)

| Compound | EC50 | Emax [1] | α2β1γ2 AMPK Emax [1] |
| --- | --- | --- | --- |
| O=C1Nc2cc(Cl)c(-c3ccc(C4(CO)CC4)cc3)cc2C1=C(O)c1cc(Br)no1 [Compound 73, 3-[1-(3-Bromo-isoxazol-5-yl)-1-hydroxy-methylidene]-6-chloro-5-[4-(1-hydroxymethyl-cyclopropyl)phenyl]-1,3-dihydro-indol-2-one] | 6 nM | 148% |  |
| O=C1Nc2cc(Cl)c(-c3ccc(N4CCOCC4)cc3)cc2C1=C(O)c1cccc(C(F)(F)F)c1 [Compound 40, 6-Chloro-3-[1-hydroxy-1-(3-trifluoromethyl-phenyl)-methylidene]-5-(4-morpholin-4-yl-phenyl)-1,3-dihydro-indol-2-one] | 720 nM | 121% |  |
| CN(C)c1ccc(-c2cc3c(cc2Cl)NC(=O)C3=C(O)c2ccc(C(=O)O)cc2)cc1 [Compound 9, 4-{[6-Chloro-5-(4-dimethylamino-phenyl)-2-oxo-1,2-dihydro-indolylidene]-hydroxy-methyl}-benzoic acid] | 24 nM and 23 nM | 120% |  |
| 6-Chloro-3-[1-hydroxy-1-(3-methoxy-isoxazol-yl)-methylidene]-5-[4-(1-hydroxymethyl-cyclopropyl)-phenyl]-1,3-dihydro-indol-2-one [Compound 54] | 5 nM |  | (187) % |
| Cc1cc(C(O)=C2C(=O)Nc3cc(Cl)c(-c4ccc(F)cc4)cc32)on1 [Compound 30, 6-Chloro-5-(4-fluoro-phenyl)-3-[1-hydroxy-1-(3-methyl-isoxazol-5-yl)-methylidene]-1,3-dihydro-indol-2-one] | 240 nM | 108% |  |
| O=C1Nc2cc(Cl)c(-c3ccc(N4CCOCC4)cc3)cc2C1=C(O)c1cc(Br)no1 [Compound 41, 3-[1-(3-Bromo-isoxazol-5-yl)-1-hydroxy-methylidene]-6-chloro-5-(4-morpholin-4-yl-phenyl)-1,3-dihydro-indol-2-one] | 3 nM | 115% |  |
| Cc1cc(C(O)=C2C(=O)Nc3cc(Cl)c(-c4ccc(O)cc4)cc32)on1 [Compound 33, 6-Chloro-3-[1-hydroxy-1-(3-methyl-isoxazol-5-yl)-methylidene]-5-(4-hydroxy-phenyl)-1,3-dihydro-indol-2-one] | 390 nM | 120% |  |
| CCc1ccc(-c2cc3c(cc2Cl)NC(=O)C3=C(O)c2cc(C)no2)cc1 [Compound 64, 6-Chloro-5-(4-ethyl-phenyl)-3-[1-hydroxy-1-(3-methyl-isoxazol-5-yl)-methylidene]-1,3-dihydro-indol-2-one] | 1630 nM | 141% |  |
| Cn1ccc(C(O)=C2C(=O)Nc3cc(Cl)c(-c4ccc(N5CCOCC5)cc4)cc32)n1 [Compound 53, 6-Chloro-3-[1-hydroxy-1-(1-methyl-1H-pyrazol-3-yl)-methylidene]-5-(4-morpholin-4-yl-phenyl)-1,3-dihydro-indol-2-one] | 1710 nM | 180% |  |

The remaining lines, values ahead:

| EC50 | Emax [1] | α2β1γ2 AMPK Emax [1] | Compound |
| --- | --- | --- | --- |
| 0.6 nM | 126% |  | O=C1Nc2cc(Cl)c(-c3ccc(C4(CO)CC4)cc3F)cc2C1=C(O)c1cc(C2CC2)no1 [Compound 113, 6-chloro-3-[(3-cyclopropylisoxazol-5-yl)hydroxy-methylene]-5-[2-fluoro-4-[1-(hydroxymethyl)cyclopropyl]phenyl]indolin-2-one] |
| 38 nM | 133% |  | COCCOc1cc(C(O)=C2C(=O)Nc3cc(Cl)c(-c4ccc(-c5cccc(OC)c5O)cc4)cc32)on1 [Compound 79, 6-chloro-3-[hydroxy-[3-(2-methoxyethoxy)isoxazol-5-yl]methylene]-5-[4-(2-hydroxy-3-methoxy-phenyl)phenyl]indolin-2-one] |
| 7 nM | 172% |  | COc1cc(C(O)=C2C(=O)Nc3cc(Cl)c(-c4ccc(C(O)CO)cc4)cc32)on1 (stereo not shown) [Compound 122, 6-chloro-5-[4-(1,2-dihydroxyethyl)phenyl]-3-[hydroxy-(3-methoxyisoxazol-5-yl)methylene]indolin-2-one] |
| 0.7 nM | 191% |  | COc1cc(C(O)=C2C(=O)Nc3cc(Cl)c(-c4ccc(N5CCC5)cc4)cc32)on1 [Compound 162, 5-[4-(azetidin-1-yl)phenyl]6-chloro-3-[hydroxy-(3-methoxyisoxazol-5-yl)methylene]indolin-2-one] |
| 7 nM | 203% |  | COc1cc(C(O)=C2C(=O)Nc3cc(Cl)c(-c4ccc(C5(O)CCOCC5)cc4)cc32)on1 [Compound 89, 6-chloro-3-[hydroxy-(3-methoxyisoxazol-5-yl)methylene]-5-[4-(4-hydroxytetrahydropyran-4-yl)phenyl]indolin-2-one] |
| 15 nM | 99% |  | Cc1cc(C(O)=C2C(=O)Nc3cc(Cl)c(-c4ccc(C(O)(CO)CCl)cc4)cc32)on1 (stereo not shown) [Compound 80, 6-chloro-5-[4-[1-(chloromethyl)-1,2-dihydroxy-ethyl]phenyl]-3-[hydroxy-(3-methylisoxazol-5-yl)methylene]indolin-2-one] |
| 14 nM | 397% |  | COc1cc(C(O)=C2C(=O)Nc3cc(Cl)c(-c4ccc(C5CCN(C)C5)cc4)cc32)on1 (stereo not shown) [Compound 133, 6-chloro-3-[hydroxy-(3-methoxyisoxazol-5-yl)methylene]-5-[4-(1-methylpyrrolidin-3-yl)phenyl]indolin-2-one hydrochloride] |
| 0.1 nM |  |  | COc1cc(C(O)=C2C(=O)Nc3cc(F)c(-c4ccc(C5(CO)CC5)cc4)c(F)c32)on1 [Compound 83, 4,6-difluoro-3-[hydroxy-(3-methoxyisoxazol-5-yl)methylene]-5-[4-[1-(hydroxymethyl)cyclopropyl]phenyl]indolin-2-one] |
| 2 nM | 191% |  | COc1ccc(C(O)=C2C(=O)Nc3cc(Cl)c(-c4ccc(N5CCOCC5)cc4)cc32)c(F)c1F [Compound 98, 6-chloro-3-[(2,3-difluoro-4-methoxy-phenyl)hydroxy-methylene]-5-(4-morpholinophenyl)indolin-2-one] |
| 26 nM | 309% |  | COc1cc(C(O)=C2C(=O)Nc3cc(Cl)c(-c4ccc(OCc5cncs5)cc4)cc32)on1 [Compound 136, 6-chloro-3-[hydroxy-(3-methoxyisoxazol-5-yl)methylene]-5-[4-(thiazol-5-ylmethoxy)phenyl]indolin-2-one] |
| 2 nM | 124% |  | CC(C)(C)c1cc(C(O)=C2C(=O)Nc3cc(Cl)c(-c4ccc(C5(CO)CC5)cc4)cc32)on1 [Compound 76, 3-[1-(3-tert-Butyl-isoxazol-5-yl)-1-hydroxy-methylidene]-6-chloro-5-[4-(1-hydroxymethyl-cyclopropyl)phenyl]-1,3-dihydro-indol-2-one] |
| 13 nM | 197% |  | CC(C)(C)c1cc(C(O)=C2C(=O)Nc3cc(Cl)c(-c4ccc(N5CCOCC5)cc4)cc32)on1 [Compound 112, 3-[(3-tert-butylisoxazol-5-yl)-hydroxy-methylene]6-chloro-5-(4-morpholinophenyl)indolin-2-one] |
| 9 nM | 223% |  | COc1cc(C(O)=C2C(=O)Nc3cc(Cl)c(-c4ccc(OC5CCC(O)CC5)cc4)cc32)on1 (stereo not shown) [Compound 152, 6-chloro-5-[4-(4-hydroxycyclohexoxy)phenyl]-3-[hydroxy-(3-methoxyisoxazol-5-yl)methylene]indolin-2-one] |
